The record followed here is patent US8362000B2, “Azetidinyl diamides as monoacylglycerol lipase inhibitors” (Janssen Pharmaceutica NV, priority 2009, dated 2013).

Residue numbers refer to the chain shown, from its start. Read-outs that look alike come from different tables or passages of the source. Where only a bound is given, the exact number is not on record here.

Assay [1] addresses T1, mutant MGL (Homo sapiens, UniProt Q99685, L169S/L176S).
T1 sequence (Q99685 1-303 L169S/L176S): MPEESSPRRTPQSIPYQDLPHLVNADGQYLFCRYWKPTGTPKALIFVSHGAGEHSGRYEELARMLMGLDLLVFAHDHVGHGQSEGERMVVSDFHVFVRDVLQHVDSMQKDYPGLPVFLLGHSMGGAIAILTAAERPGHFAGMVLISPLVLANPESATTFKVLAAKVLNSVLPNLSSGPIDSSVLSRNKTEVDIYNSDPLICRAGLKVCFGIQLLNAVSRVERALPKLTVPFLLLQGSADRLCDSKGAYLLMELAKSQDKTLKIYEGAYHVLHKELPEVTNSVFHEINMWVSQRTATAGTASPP
Briefly: MGL ThermoFluor assay - mutant. Format: binding. Background: DSF heats the sample and reads unfolding from a dye or from intrinsic fluorescence.

Assay [2] has as its target T2, purified wild type MGL (wt-MGLL 6H-11-313) (Homo sapiens, UniProt Q99685).
T2 sequence (Q99685 1-303): T1 sequence (Q99685 1-303 L169S/L176S) with S169L, S176L

Setting [3] is: ThermoFluor, compound concentration measured by qNMR, read-out: MGL mutant ThermoFluor qKd (μM) (using qNMR conc.).
The mark [4] stands for this setting: ThermoFluor concentration-response, read-out: MGL mutant ThermoFluor Kd.
Where [5] appears, read: compound concentration measured by qNMR, read-out: MGL mutant ThermoFluor qKd (using qNMR conc.).
[6] abbreviates: ThermoFluor thermal stability binding assay, read-out: MGL mutant ThermoFluor Kd.
[7] abbreviates: ThermoFluor, compound concentration measured by qNMR, read-out: MGL mutant ThermoFluor qKd (using qNMR conc.).

By IC50 is commonly meant the point on the concentration scale where inhibition reaches its midpoint. A higher IC50 goes with weaker potency. `O=C(c1cscn1)N1CCN(C2CN(C(=O)c3cn(-c4cccc(F)c4)c4ccccc34)C2)CC1` [Cpd 1279]: in assay [1] (setting [3]), the Kd was 1.86 µM. The compound also had an IC50 in assay [2] of 1900 nM.
With `O=C(c1ccc2nc(C(F)(F)F)cc(Cl)c2c1)N1CCN(C2CN(C(=O)c3cscn3)C2)CC1` [Cpd 859], the Kd in assay [1] (setting [4]) turned out to be 1.43 µM. The compound further showed an IC50 in assay [2] of 8820 nM.
On to `O=C(c1ccc(Oc2ccccn2)cc1)N1CC(N2CCN(C(=O)C(F)(F)F)CC2)C1` [Cpd 869], for which, in assay [1] (setting [5]), the Kd stood at 6.2 µM. The compound further gave an IC50 in assay [2] of 12900 nM.
For the compound `Cc1c(C(=O)N2CC(N3CCN(C(=O)c4cscn4)CC3)C2)cccc1-c1ccccc1` [Cpd 1285], in assay [1] (setting [4]), the Kd worked out at 2.45 µM. The IC50 in assay [2] turned out to be 2320 nM.
As to `O=C(c1cscn1)N1CCN(C2CN(C(=O)c3cccc4nc(-c5cccc(Cl)c5)oc34)C2)CC1` [Cpd 1238], the Kd in assay [1] (setting [6]) is 0.125 µM. The compound further displayed an IC50 in assay [2] of 437 nM.
For `Cn1nc(-c2ccc(F)cc2)c2cc(C(=O)N3CC(N4CCN(C(=O)c5nccs5)CC4)C3)ccc21` [Cpd 1195], in assay [1] (setting [4]), the Kd worked out at 0.023 µM. This compound also came in with an IC50 in assay [2] of 120 nM.
In the case of `O=C(c1cnn(-c2ccccc2)n1)N1CC(N2CCN(C(=O)c3nccs3)CC2)C1` [Cpd 1300], the Kd in assay [1] (setting [4]) was found to be 3.33 µM. For the same compound, the half-inhibitory concentration (IC50) in assay [2] amounted to 4130 nM.
Turning to `O=C(c1cscn1)N1CCN(C2CN(C(=O)c3sc4cc(C(F)(F)F)ccc4c3Cl)C2)C(C(F)(F)F)C1` (stereo not shown) [Cpd 801], in assay [1] (setting [6]), the Kd was 52.5 µM. In assay [2], this compound gave a half-maximal inhibitory concentration (IC50) of 1710 nM.
The matching figures for `O=C(c1ccc2c(cnn2-c2cccc(C(F)(F)F)c2)c1)N1CC(N2CCN(C(=O)c3nccs3)CC2)C1` [Cpd 1419]: 0.004 µM and under 5 nM.
Take `O=C(c1ccc2c(c1)ncn2-c1ccc(C(F)(F)F)cc1)N1CC(N2CCN(C(=O)c3cscn3)CC2)C1` [Cpd 1231]: the Kd in assay [1] (setting [5]) was found to be 0.131 µM. This compound also yielded an IC50 in assay [2] of 316 nM.
Turning to `O=C(c1cscn1)N1CCN(C2CN(C(=O)c3cc4ccc(C(F)(F)F)nc4[nH]3)C2)CC1` [Cpd 865], the Kd in assay [1] (setting [7]) stood at 2.5 µM. The same compound had an IC50 in assay [2] of 10300 nM.
Turning to `O=C(c1ccccc1)N1CC(N2CCN(C(=O)c3cc4cc(C(F)(F)F)ccc4s3)C(c3ccccc3)C2)C1` (stereo not shown) [Cpd 517], the Kd in assay [1] (setting [4]) stood at 0.05 µM. In assay [2], this compound registered a half-maximal inhibitory concentration (IC50) of 1340 nM.
For the compound `O=C(c1ccc(-n2nccc2-c2ccc(F)cc2)cc1)N1CC(N2CCN(C(=O)c3nccs3)CC2)C1` [Cpd 1412], the Kd in assay [1] (setting [6]) is 0.241 µM. For the same compound, half-maximal inhibition in assay [2] (IC50) was put at 87 nM.
For `O=C(c1ccc2c(c1)[nH]c(=O)n2CC(F)(F)F)N1CC(N2CCN(C(=O)c3nccs3)CC2)C1` [Cpd 937], the Kd in assay [1] (setting [4]) turned out to be 0.096 µM. The compound also displayed an IC50 in assay [2] of 250 nM.
The matching figures for `O=C(c1ccccc1)N1CCN(C2CN(C(=O)c3ccc(N4CCOCC4)nc3)C2)CC1` [Cpd 1485, 4-[5-({3-[4-(Phenylcarbonyl)piperazin-1-yl]azetidin-1-yl}carbonyl)pyridin-2-yl]morpholine]: 10 µM and over 16700 nM.
On to `O=C(c1ccc(-c2cccc(C(F)(F)F)c2)cc1)N1CC(N2CCN(C(=O)c3ccc(Cl)o3)CC2)C1` [Cpd 1078], for which the Kd in assay [1] (setting [3]) is 0.005 µM. Further, the concentration for half-maximal inhibition (IC50) in assay [2] stood at 9 nM.
As to `O=C(c1ccccc1)N1CCc2cccc(C(=O)N3CC(N4CCN(C(=O)c5nccs5)CC4)C3)c2C1` [Cpd 1437], the Kd in assay [1] (setting [6]) was 33.3 µM. The compound further displayed a half-inhibitory concentration (IC50) in assay [2] of over 16700 nM.
In the case of `Cc1nc2cc(C(=O)N3CC(N4CCN(C(=O)c5nccs5)CC4)C3)ccc2n1-c1ccccc1` [Cpd 1229], in assay [1] (setting [5]), the Kd came out at 0.011 µM. This compound came in with a half-maximal inhibitory concentration (IC50) in assay [2] of 306 nM.
As for `Cc1cc(-n2ccc3cc(C(=O)N4CC(N5CCN(C(=O)c6nccs6)CC5)C4)ccc32)ccc1C#N` [Cpd 1375, 2-Methyl-4-[5-({3-[4-(1,3-thiazol-2-ylcarbonyl)piperazin-1-yl]azetidin-1-yl}carbonyl)-1H-indol-1-yl]benzonitrile], the Kd in assay [1] (setting [3]) is 0.003 µM. The compound further gave a concentration for half-maximal inhibition (IC50) in assay [2] of under 5 nM.
Consider `O=C(c1ccc(-c2ccccc2)cc1)N1CC(N2CCN(C(=O)c3c[nH]nn3)CC2)C1` [Cpd 1269], for which the Kd in assay [1] (setting [6]) was 1.16 µM. Further, in assay [2], half-maximal inhibition (IC50) required 1260 nM.
Take `O=C(c1cccc(F)c1)N1CCN(C2CN(C(=O)c3ccc4c(ccn4-c4ccc(F)cc4)c3)C2)CC1` [Cpd 1424]: the Kd in assay [1] (setting [3]) turned out to be 0.124 µM. Besides, in assay [2], 75 nM corresponded to half-maximal inhibition (IC50).
For the compound `O=C(c1ccc2c(c1)[nH]c(=O)n2-c1ccc(C(F)(F)F)cc1)N1CC(N2CCN(C(=O)c3cscn3)CC2)C1` [Cpd 942], in assay [1] (setting [4]), the Kd stood at 0.135 µM. The IC50 in assay [2] turned out to be 216 nM.
Take `Cc1cc(-n2ccc3cc(C(=O)N4CC(N5CCN(C(=O)c6nccs6)CC5)C4)ccc32)ccn1` [Cpd 1410, 1-(2-Methylpyridin-4-yl)-5-({3-[4-(1,3-thiazol-2-ylcarbonyl)piperazin-1-yl]azetidin-1-yl}carbonyl)-1H-indole]: the Kd in assay [1] (setting [7]) came to 0.014 µM. Further, it took 89 nM to reach half-maximal inhibition in assay [2] (IC50).
Regarding `O=C(c1ccc2c(c1)ncn2CC(F)(F)F)N1CC(N2CCN(C(=O)c3nccs3)CC2)C1` [Cpd 761], in assay [1] (setting [5]), the Kd is 0.092 µM. Besides, the midpoint of inhibition in assay [2], the IC50, lay at 583 nM.
For the compound `Cc1cc(Br)ccc1C(=O)N1CC(N2CCN(C(=O)c3nccs3)CC2)C1` [Cpd 786], the Kd in assay [1] (setting [7]) came out at 0.665 µM. Further, in assay [2], half-maximal inhibition (IC50) required 1200 nM.
`O=C(c1ccc(-c2ccccc2)cc1)N1CCN(C2CN(C(=O)c3cccc(F)c3)C2)CC1` [Cpd 1242, 1-(Biphenyl-4-ylcarbonyl)-4-{1-[(3-fluorophenyl)carbonyl]azetidin-3-yl}piperazine]: the Kd in assay [1] (setting [4]) turned out to be 0.197 µM. In addition, the midpoint of inhibition in assay [2], the IC50, lay at 461 nM.
With `O=C(c1ccc2c(c1)CCN2)N1CC(N2CCN(C(=O)c3nccs3)CC2)C1` [Cpd 829, 5-({3-[4-(1,3-Thiazol-2-ylcarbonyl)piperazin-1-yl]azetidin-1-yl}carbonyl)-2,3-dihydro-1H-indole], the Kd in assay [1] (setting [6]) is 0.5 µM. This compound yielded an IC50 in assay [2] of 3900 nM.
Take `Cc1c(C(=O)N2CC(N3CCN(C(=O)c4cscn4)CC3)C2)sc2cc(F)ccc12` [Cpd 742]: the Kd in assay [1] (setting [6]) was 0.02 µM. Inhibition in assay [2] was half-maximal at 306 nM (IC50).
With `O=C(c1nccs1)N1CCN(C2CN(C(=O)c3ccc4c(ccn4-c4ccc(F)cc4)c3Cl)C2)CC1` [Cpd 1414, 4-Chloro-1-(4-fluorophenyl)-5-({3-[4-(1,3-thiazol-2-ylcarbonyl)piperazin-1-yl]azetidin-1-yl}carbonyl)-1H-indole], in assay [1] (setting [5]), the Kd was 0.003 µM. In addition, in assay [2], the half-maximal inhibitory concentration (IC50) stood at 11 nM.
Take `O=C(c1nccs1)N1CCN(C2CN(C(=O)c3cccc4[nH]c(Cc5ccccc5)nc34)C2)CC1` [Cpd 980]: the Kd in assay [1] (setting [6]) was 5 µM. This compound yielded a half-inhibitory concentration (IC50) in assay [2] of 6790 nM.
On to `Cc1nc(-c2ccccc2F)sc1C(=O)N1CC(N2CCN(C(=O)c3nccs3)CC2)C1` [Cpd 1202], for which, in assay [1] (setting [4]), the Kd stood at 0.065 µM. Further, the IC50 in assay [2] came to 152 nM.
Consider `O=C(c1cscn1)N1CCN(C2CN(C(=O)c3cccc4[nH]c(-c5ccc(Cl)cc5)nc34)C2)CC1` [Cpd 1290], for which the Kd in assay [1] (setting [6]) was 0.643 µM. This compound gave an IC50 in assay [2] of 2700 nM.
`O=C1c2ccccc2-c2ccc(C(=O)N3CC(N4CCN(C(=O)c5nccs5)CC4)C3)cc21` [Cpd 698]: the Kd in assay [1] (setting [7]) was determined as 0.085 µM. Also, the half-inhibitory concentration (IC50) in assay [2] worked out at 65 nM.
`CC1(C)Cc2cc(C(=O)N3CC(N4CCN(C(=O)c5nccs5)CC4)C3)ccc2O1` [Cpd 766]: the Kd in assay [1] (setting [7]) amounted to 0.378 µM. Also, in assay [2], the IC50 stood at 680 nM.
The matching figures for `Cc1nn(-c2cccc(C(F)(F)F)c2)c2sc(C(=O)N3CC(N4CCN(C(=O)c5nccs5)CC4)C3)cc12` [Cpd 1146]: 0.08 µM and 32 nM.
